Several values for one entry are separate records, joined by “and”; a condition that tells them apart may be missing. Equal entries are not always repeated.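 Assay format: 96-well plates, 48-hour exposure. At the GI50, growth is halved. At the TGI there is no net growth.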
Columns and labels:
Test in all cases: DTP human tumour cell line panel, 48 h
[1] = tested on: 786-0 renal
[2] = tested on: A549 NSCLC
[3] = tested on: CAKI-1 renal
[4] = tested on: HCT-116 colon
[5] = tested on: MDA-MB-435
[6] = tested on: MOLT-4 leukemia
[7] = tested on: NCI-H522 lung
[8] = tested on: SW-620 colon
[9] = tested on: U251 CNS
[10] = tested on: UO-31 renal
[11] = tested on: COLO 205 colon
[12] = tested on: OVCAR-3 ovarian

Row | SMILES | TGI [1] | TGI [2] | TGI [3] | TGI [4] | TGI [5] | TGI [6] | TGI [7] | TGI [8] | TGI [9] | TGI [10] | TGI [11] | TGI [12] | GI50 [2] | GI50 [4] | GI50 [5] | GI50 [6] | GI50 [9] | GI50 [10]
1 | c1ccc(C/C(=N\Nc2nc3ccccc3[nH]2)c2ccccn2)cc1 | 5.7 µM | 11.9 µM | 1.52 µM | 5.18 µM | 11.1 µM | 6.85 µM | 0.105 µM | 15.1 µM | 12.3 µM | 1.88 µM | – | – | – | – | – | – | – | –
2 | CCOC(=O)N1CCC2(CC1)C[C@](Sc1ccccc1)(C(C)=O)[C@H](C)O2 | > 100 µM | > 100 µM | > 100 µM | – | > 100 µM | > 100 µM | > 100 µM | > 100 µM | > 100 µM | > 100 µM | > 100 µM | > 100 µM | – | – | – | – | – | –
3 | CSC(=Nc1ccccc1)c1c(C)[nH]n(-c2ccccc2)c1=O | > 100 µM | > 100 µM | > 100 µM | > 100 µM | > 100 µM | > 100 µM | > 100 µM | > 100 µM | > 100 µM | > 100 µM | > 100 µM | > 100 µM | – | – | – | – | – | –
4 | O=[N+]([O-])C(/C(Cl)=C(/Cl)N1CCOCC1)=C1\Nc2ccccc2O1 | > 100 µM | > 100 µM | > 100 µM | > 100 µM | > 100 µM | > 100 µM | – | > 100 µM | > 100 µM | > 100 µM | > 100 µM | > 100 µM | – | – | – | – | – | –
5 | CC(C)(C)OC(=O)C1C(=O)NC(=O)CC1C(OCc1ccccc1)C(OCc1ccccc1)C(COCc1ccccc1)OCc1ccccc1 (centres undefined) | > 100 µM | > 100 µM | – | > 100 µM | > 100 µM | > 100 µM | – | > 100 µM | > 100 µM | > 100 µM and 30.3 µM | > 100 µM | – | > 100 µM and 26.9 µM | > 100 µM and 48.1 µM | > 100 µM and 28.9 µM | 66 µM and 9.83 µM | 68 µM and 14.4 µM | 42.6 µM and 10.5 µM
6 | O=C(CN1CCCCC1)c1ccc2[nH]c(=O)oc2c1 | > 100 µM | – | > 100 µM | > 100 µM | > 100 µM | > 100 µM | – | > 100 µM | > 100 µM | – | > 100 µM | > 100 µM | – | – | – | – | – | –
7 | COc1cc(/C=C2\CC3C4CC=C5C[C@@H](O)CC[C@]5(C)C4CC[C@]3(C)\C2=N\O)cc(OC)c1OC (some centres undefined) | 72.2 µM | > 100 µM | 37.7 µM | 21.2 µM | > 100 µM | > 100 µM | > 100 µM | > 100 µM | 28.2 µM | 11.1 µM | 16.9 µM | 61.4 µM | – | – | – | – | – | –
8 | COC(=O)C12C(=O)CC3CCC1C32C(=O)OC (centres undefined) | > 100 µM | > 100 µM | > 100 µM | > 100 µM | > 100 µM | > 100 µM | > 100 µM | > 100 µM | > 100 µM | > 100 µM | > 100 µM | > 100 µM | – | – | – | – | – | –
9 | Cc1ccc(S(=O)(=O)N(CC(O)COc2ccccc2)c2c(F)c(F)c(F)c(F)c2F)cc1 (centres undefined) | 38.8 µM | 36.8 µM | 26.7 µM | 44 µM | 34.5 µM | 56.4 µM | – | 36.2 µM | 27.9 µM | 25.1 µM | 29.8 µM | 38.9 µM | – | – | – | – | – | –
10 | Cc1cc(C)c2c(-c3ccccc3)cc(=O)[nH]c2c1 | > 100 µM | > 100 µM | – | > 100 µM | > 100 µM | > 100 µM | > 100 µM | > 100 µM | > 100 µM | – | > 100 µM | > 100 µM | – | – | – | – | – | –
11 | OC1C2CN3CCN(C2)CC1(c1ccccc1)C3 (centres undefined) | > 100 µM | – | > 100 µM | > 100 µM | > 100 µM | > 100 µM | > 100 µM | > 100 µM | > 100 µM | > 100 µM | > 100 µM | > 100 µM | – | – | – | – | – | –
12 | COc1cc(O)c2c(=O)c3cccc(C)c3[nH]c2c1 | > 10 µM | > 10 µM | > 10 µM | > 10 µM | > 10 µM | > 10 µM | > 10 µM | > 10 µM | > 10 µM | – | > 10 µM | > 10 µM | – | – | – | – | – | –
13 | Fc1ccc(/C=C2\COCC3=C2NC(=S)NC3c2ccc(F)cc2)cc1 (centres undefined) | 34.4 µM | – | 76.2 µM | 32.1 µM | 33.3 µM | 54 µM | 34.2 µM | 36 µM | 40.8 µM | 33.5 µM | 35.1 µM | 32.6 µM | – | – | – | – | – | –
14 | O=C(CSc1nc2ccccc2c(=O)n1-c1ccccc1)N=Nc1c(O)[nH]c2ccc(Br)cc12 | 4.33 µM | 10.9 µM | 3.69 µM | – | 34 µM | > 29.4 µM | 9.69 µM | > 51.2 µM | 4.26 µM | 6.64 µM | > 35.6 µM | 20 µM | – | – | – | – | – | –
15 | Cc1cc2c(cc1Cl)SSc1cc(Cl)c(C)cc1S(=O)(=O)Nc1nc(N)nn1C(O)n1nc(N)nc1NS2(=O)=O | > 10 µM | > 10 µM | > 10 µM | > 10 µM | – | > 10 µM | > 10 µM | > 10 µM | > 10 µM | > 10 µM | > 10 µM | > 10 µM | – | – | – | – | – | –
16 | CC(=O)Oc1ccc2c(c1)O/C(=C\c1ccc(N(C)C)cc1)C2=O | > 100 µM | > 100 µM | > 100 µM | > 100 µM | > 100 µM | > 100 µM | 66.2 µM | > 100 µM | > 100 µM | > 100 µM | > 100 µM | – | – | – | – | – | – | –
17 | CC1(N2CCOCC2)CC2C(=[N+]1[O-])CCC/C2=N/O (centres undefined) | > 100 µM | > 100 µM | > 100 µM | > 100 µM | > 100 µM | > 100 µM | > 100 µM | > 100 µM | > 100 µM | > 100 µM | – | > 100 µM | – | – | – | – | – | –
18 | C#CCOC(=O)C=[N+]=[N-] | > 10 µM | > 10 µM | – | > 10 µM | > 10 µM | > 10 µM | – | > 10 µM | > 10 µM | > 10 µM | – | > 10 µM | – | – | – | – | – | –

Source: PubChem BioAssay (NCI)
